The values below come from patent publication US20030143251A1, “Skin preparations for external use” (priority 2000, published 2003).

The nature of series [1]: Maintenance on mouse skin samples (residual rate by HPLC). The settings on record: for Maintenance 19 hours after starting incubation: 0.5 g and 2.0 g mouse skin; for Maintenance 19 hours after starting incubation / Residual rate: 0.037M, pH 7.0, 37° C.; for Residual rate: 0.5 g of the skin sample, 40 hours. The format is in vitro ADME. As for the experimental part:
The back skin was depilated and peeled off after sacrificing mice by cervical dislocation at 24 weeks of age.
Each sample was tested in triplicate (n=3) in all of the 4 groups, and mean residual rates were calculated.
HPLC was conducted under the following conditions:
Solvent: methanol-water (20:80, v/v, adjusted to pH 2.5 using phosphoric acid)

Series [2] in a line: Maintenance in mouse skin extract fluid (residual rate by HPLC). The format is in vitro ADME. The settings on record: skin extract fluid 1:1 with 0.1M solution, pH 7.0, 37° C. As to the method:
The skin samples obtained in Evaluation example 5 were weighed, and 2.6 g was added to sodium citrate-phosphate buffer solution (5.2 ml, pH 7.0) and homogenized. The homogenate obtained was used as skin extract fluid.
Each sample was tested in triplicate (n=3) in both groups, and mean residual rates were calculated.
HPLC was conducted under the conditions used in Evaluation example 5.

The nature of series [3]: Stability (decomposition rate) in acidic, neutral and alkaline aqueous solutions. The format is physicochemical.
Series [4] deals with mushroom-derived tyrosinase. The settings on record: cited from earlier work.
For series [5] the following is noted: reported; cited from earlier work.
Setting [6] is: pH 5.5, aqueous solution, 0.045M, 37° C.
Setting [7] is: pH 6.5, aqueous solution, 0.045M, 37° C.
[8] abbreviates: pH 7.5, aqueous solution, 0.045M, 37° C.

Where two headings read alike, the source gives them in different places.

`OC[C@H]1O[C@@H](Oc2ccc(O)cc2)[C@H](O)[C@@H](O)[C@@H]1O` [β-Arbutin, hydroquinone-β-glucopyranoside, reference compound]: in series [1], the “Maintenance 19 hours after starting incubation” value is listed as “remained virtually intact” and the Residual rate was 0%. Moreover, in series [2], the “Maintenance 4 hours after starting incubation” value is “remained virtually intact”.

Usually half-life stands for the time in which the quantity being followed falls by half. With `OCC1OC(Oc2ccc(O)cc2)C(O)C(O)C1O` [α-Arbutin, hydroquinone-α-D-glucopyranoside], the half-life at 0.045 M in series [3] (buffer, pH 6.5) was 53.3 h; in series [3] (buffer, pH 7.5) it was 31.5 h. Also, the Decomposition rate constant in series [3] (setting [6]) stood at 0; in series [3] (setting [7]), 0.013; in series [3] (setting [8]), 0.022. The “Maintenance 19 hours after starting incubation” value in series [1] is “remained virtually intact”. Besides, the Residual rate in series [1] came out at 87.5%. The “Residual rate, times larger than that of β-arbutin” value in series [1] (2.0 g of the skin sample, 40 hours after incubation) is on record as “about 10 times”. The “Maintenance 4 hours after starting incubation” value in series [2] was “remained virtually intact”. In addition, in series [2] (20 hours), the “Residual rate compared with the β-arbutin group” value is reported as “more than twice higher”. In series [4] (Tokkaihei No. 5-932), the “Effect on mushroom-derived tyrosinase activity” value was “promotes, rather than inhibits”. For the same molecule, the “Inhibition of mushroom-derived tyrosinase” value in series [4] (Tokkaihei No. 6-153976) is “effective in inhibiting mushroom-derived tyrosinase”. Moreover, the Tyrosinase inhibiting activity entry in series [4] (mushroom-derived tyrosinase, Biochem. Biotech. Biochem., 59, 143 (1995)) is on record as “does not show tyrosinase inhibiting activity”.

Take `Oc1ccc(O)cc1` [Hydroquinone, hydroquinone]: the half-life at 0.045 M in series [3] (aqueous solution, pH 5.5, over pH 5.5 to 7.5, 37° C., read-out: Half-life in alkaline and acidic regions) was 0.6 to 10.8 h; in series [3] (aqueous solution, pH 5.5, pH 5.5, aqueous solution, 0.045M, 37° C., α-arbutin determined after 69 hrs, read-out: Half-life (converted)), 10.8 h; in series [3] (aqueous solution, pH 6.5, pH 6.5, aqueous solution, 0.045M, 37° C., read-out: Half-life (converted)), 0.8 h; in series [3] (aqueous solution, pH 7.5, pH 7.5, aqueous solution, 0.045M, 37° C., read-out: Half-life (converted)), 0.6 h. Moreover, the figures for the Decomposition rate constant in series [3] (setting [6]), in series [3] (setting [7]) and in series [3] (setting [8]) were 0.064, 0.903 and 1.117, respectively. In series [5], the “Cytotoxicity, times more cytotoxic than β-arbutin” value is given as “about 400 times”.
